According to patent US20190374566A1, “COMPOSITION FOR PREVENTING AND TREATING ARTHRITIS, INCLUDING DNA FRAGMENT MIXTURE AND MATRIX METALLOPROTEINASE PRODUCTION INHIBITOR” (BR PHARM CO., LTD., priority 2018, published 2019):

Key:
Format in all cases: cell-based, human
MMP-13 [1] = assay: MMP-13 expression (ELISA of culture supernatant) in 2D cultured SW-1353 cells stimulated with IL-β; conditions: 2D SW-1353, 10 mM of inhibitor together with 0, 10, 100 and 1000 μl/ml DNA fragment mixture, IL-β 10 ng/ml
Method: (§1) The human chondrosarcoma cell line SW-1353 (HTB-94, ATCC, Mansassas, Va., USA) was cultured in DMEM (Dulbecco Modified Eagle's medium) supplemented with 10% FBS (fetal bovine serum) and 1% antibiotic-antifungal agent. An incubator for cell culture was kept at 37° C. under 5% CO2. For cell culture, cells were seeded into a culture flask at a density of 1.2×10^4 cells/cm^2. When a confluence of 80-90% was reached, the cells were trypsinized. The cells were subcultured 9 times before use in the experiment.
(§2) SW-1353 cells were treated with 10-1000 μg/ml of the DNA fragment mixture and 0.1-10 mM of each of glucosamine (GLN), N-acetyl-D-glucosamine (NAG), alliin, sodium butyrate (SB) and chondroitin sulfate (CS) for 24 hours, and stimulated with 10 ng/ml of IL-β for analysis of MMP expression therein.
(§3) To evaluate MMP expression, IL-β was dissolved in serum-free DMEM medium and used at a final concentration of 10 ng/ml. The cells were cultured at 37° C. under 5% CO2. The cell culture supernatant was collected, centrifuged, and then stored at −80° C. until use in the experiment. The amounts of MMP-3 and MMP-13 in the culture supernatant were measured using commercially available ELISA (enzyme-linked immunosorbent assays) according to the manufacturer's protocol.
(§4) Cells of test groups were cultured with 10 ng/ml of IL-β under the same conditions as those of the control group.

MMP-3 [2] = assay: MMP-3 expression (ELISA of culture supernatant) in 2D cultured SW-1353 cells stimulated with IL-β; conditions: 2D SW-1353, 10 mM of inhibitor together with 0, 10, 100 and 1000 μg/ml DNA fragment mixture, IL-β 10 ng/ml
Method: as §1, §2, §3, §4

MMP-13 [3] = assay: MMP-13 expression (ELISA) in 3D cultured SW-1353 cells stimulated with IL-β; conditions: 3D SW-1353, 10 mM of inhibitor together with 0, 10, 100 and 1000 μl/ml DNA fragment mixture, IL-β 10 ng/ml
Method: (§5) SW-1353 cells were grown on a 3D collagen […] with or without a DNA fragment mixture (polydeoxyribonucleotides (PDRN), 450 kDa, sterilized, BR Pharm Co, Wonju, South Korea). SW-1353 cells were harvested from the 2D culture, and the cells in the medium were counted. Next, the cells were spun down and cooled. For use of the DNA fragment mixture as an extracellular matrix (ECM) additive to 3D chondrocytes, 10 mg/ml of the DNA fragment mixture was dissolved in 10× PBS and diluted with 10× PBS at concentrations of 0 μg/ml, 10 μg/ml, 100 μg/ml and 1000 μg/ml. 10× PBS, containing different concentrations of the DNA fragment mixture, and rat tail collagen I solution diluted with DMEM at a concentration of 4 mg/ml, were mixed at a ratio of 1:10, and the mixture was adjusted to a pH of 7.0-7.4 with NaOH. Thereafter, the cells were carefully shaken to avoid air bubbles from entering the collagen solution. 2 μl of the solution was added to each well to construct a 3D gel-cell. The gel was kept in an incubator (37° C. and 5% CO2) for 45 minutes, and the 3D gel-cell matrix was exposed to serum-free medium for 48 hours. For drug screening from the DNA fragment mixture, the DNA fragment mixture was treated with serum-free medium after the SW-1353 cells were sufficiently grown.
as §2, §3
(§6) During 3D cell culture, chondrocytes were cultured in 10% serum-containing medium or serum-free medium, and the cultured chondrocytes were stimulated with IL-β (10 ng/ml).
(§7) In addition, after 24 hours of treatment with the DNA fragment mixture and IL-β in serum-free medium, two markers (MMP-3 and MMP-13) which are frequently involved in degenerative arthritis disease were analyzed.

MMP-3 [4] = assay: MMP-3 expression (ELISA) in 3D cultured SW-1353 cells stimulated with IL-β; conditions: 3D SW-1353, 10 mM of inhibitor together with 0, 10, 100 and 1000 μg/ml DNA fragment mixture, IL-β 10 ng/ml
Method: as §5, §2, §3, §6, §7

CC(=O)N[C@H]1C(O)O[C@H](CO)[C@@H](O)[C@@H]1O (stereo partly drawn) [N-acetyl-D-glucosamine]
decreased: expression level of MMP-13 protein (MMP-13 [1]) | expression level of MMP-3 protein (MMP-3 [2]) | expression level of MMP-13 protein (MMP-13 [3]) | expression level of MMP-3 protein (MMP-3 [4])

N[C@H]1C(O)O[C@H](CO)[C@@H](O)[C@@H]1O (some centres unmarked) [glucosamine]
decreased: expression level of MMP-13 protein (MMP-13 [1]) | expression level of MMP-3 protein (MMP-3 [2]) | expression level of MMP-13 protein (MMP-13 [3]) | expression level of MMP-3 protein (MMP-3 [4])

CCCC(=O)[O-].[Na+] [sodium butyrate]
decreased: expression level of MMP-13 protein (MMP-13 [1]) | expression level of MMP-3 protein (MMP-3 [2]) | expression level of MMP-13 protein (MMP-13 [3]) | expression level of MMP-3 protein (MMP-3 [4])

alliin
decreased: expression level of MMP-13 protein (MMP-13 [1]) | expression level of MMP-3 protein (MMP-3 [2]) | expression level of MMP-13 protein (MMP-13 [3]) | expression level of MMP-3 protein (MMP-3 [4])

chondroitin sulfate
decreased: expression level of MMP-13 protein (MMP-13 [1]) | expression level of MMP-3 protein (MMP-3 [2]) | expression level of MMP-13 protein (MMP-13 [3]) | expression level of MMP-3 protein (MMP-3 [4])
